Columns and labels:
PIK3CA (human) = PIK3CA (human) (UniProt P42336); assay: Inhibition of PIK3CA Kinase Activity
PIK3CB (Human) = PIK3CB (Human) (UniProt P42338); assay: Inhibition of PIK3CB Kinase Activity
PIK3CD (Human) = PIK3CD (Human) (UniProt O00329); assay: Inhibition of PIK3CD Kinase Activity
PIK3CG (human) = PIK3CG (human) (UniProt P48736); assay: Inhibition of PIK3CG Kinase Activity

Measured: IC50

Sequence of PIK3CB (Human) (P42338 whole entry, looked up): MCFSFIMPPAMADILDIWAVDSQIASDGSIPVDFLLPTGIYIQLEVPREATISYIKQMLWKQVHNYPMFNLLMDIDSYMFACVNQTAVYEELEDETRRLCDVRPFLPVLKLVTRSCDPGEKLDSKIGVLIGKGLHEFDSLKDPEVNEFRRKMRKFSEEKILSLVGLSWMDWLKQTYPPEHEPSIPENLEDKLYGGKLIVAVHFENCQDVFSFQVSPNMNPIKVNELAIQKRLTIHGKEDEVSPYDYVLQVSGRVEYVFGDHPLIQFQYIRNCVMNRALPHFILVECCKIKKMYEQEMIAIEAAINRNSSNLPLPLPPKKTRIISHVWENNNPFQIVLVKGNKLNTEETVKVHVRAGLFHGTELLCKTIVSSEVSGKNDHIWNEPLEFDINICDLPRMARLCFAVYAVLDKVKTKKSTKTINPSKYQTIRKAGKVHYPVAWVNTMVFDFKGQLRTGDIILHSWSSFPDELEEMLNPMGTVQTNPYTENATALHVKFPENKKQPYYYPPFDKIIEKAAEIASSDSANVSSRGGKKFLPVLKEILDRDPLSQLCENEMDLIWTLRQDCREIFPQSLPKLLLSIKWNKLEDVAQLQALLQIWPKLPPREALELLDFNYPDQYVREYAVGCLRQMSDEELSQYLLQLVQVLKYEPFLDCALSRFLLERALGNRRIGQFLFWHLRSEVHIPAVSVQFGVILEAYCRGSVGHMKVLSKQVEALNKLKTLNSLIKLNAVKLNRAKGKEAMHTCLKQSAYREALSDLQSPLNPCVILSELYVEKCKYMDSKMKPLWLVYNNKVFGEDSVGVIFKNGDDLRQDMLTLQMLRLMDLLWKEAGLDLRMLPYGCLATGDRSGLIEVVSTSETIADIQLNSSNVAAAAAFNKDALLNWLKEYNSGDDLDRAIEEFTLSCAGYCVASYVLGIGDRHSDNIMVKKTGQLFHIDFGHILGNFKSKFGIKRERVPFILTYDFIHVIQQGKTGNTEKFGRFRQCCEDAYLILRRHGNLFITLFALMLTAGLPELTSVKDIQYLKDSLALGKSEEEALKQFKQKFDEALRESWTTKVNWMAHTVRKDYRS
Sequence of PIK3CG (human) (P48736 whole entry, looked up): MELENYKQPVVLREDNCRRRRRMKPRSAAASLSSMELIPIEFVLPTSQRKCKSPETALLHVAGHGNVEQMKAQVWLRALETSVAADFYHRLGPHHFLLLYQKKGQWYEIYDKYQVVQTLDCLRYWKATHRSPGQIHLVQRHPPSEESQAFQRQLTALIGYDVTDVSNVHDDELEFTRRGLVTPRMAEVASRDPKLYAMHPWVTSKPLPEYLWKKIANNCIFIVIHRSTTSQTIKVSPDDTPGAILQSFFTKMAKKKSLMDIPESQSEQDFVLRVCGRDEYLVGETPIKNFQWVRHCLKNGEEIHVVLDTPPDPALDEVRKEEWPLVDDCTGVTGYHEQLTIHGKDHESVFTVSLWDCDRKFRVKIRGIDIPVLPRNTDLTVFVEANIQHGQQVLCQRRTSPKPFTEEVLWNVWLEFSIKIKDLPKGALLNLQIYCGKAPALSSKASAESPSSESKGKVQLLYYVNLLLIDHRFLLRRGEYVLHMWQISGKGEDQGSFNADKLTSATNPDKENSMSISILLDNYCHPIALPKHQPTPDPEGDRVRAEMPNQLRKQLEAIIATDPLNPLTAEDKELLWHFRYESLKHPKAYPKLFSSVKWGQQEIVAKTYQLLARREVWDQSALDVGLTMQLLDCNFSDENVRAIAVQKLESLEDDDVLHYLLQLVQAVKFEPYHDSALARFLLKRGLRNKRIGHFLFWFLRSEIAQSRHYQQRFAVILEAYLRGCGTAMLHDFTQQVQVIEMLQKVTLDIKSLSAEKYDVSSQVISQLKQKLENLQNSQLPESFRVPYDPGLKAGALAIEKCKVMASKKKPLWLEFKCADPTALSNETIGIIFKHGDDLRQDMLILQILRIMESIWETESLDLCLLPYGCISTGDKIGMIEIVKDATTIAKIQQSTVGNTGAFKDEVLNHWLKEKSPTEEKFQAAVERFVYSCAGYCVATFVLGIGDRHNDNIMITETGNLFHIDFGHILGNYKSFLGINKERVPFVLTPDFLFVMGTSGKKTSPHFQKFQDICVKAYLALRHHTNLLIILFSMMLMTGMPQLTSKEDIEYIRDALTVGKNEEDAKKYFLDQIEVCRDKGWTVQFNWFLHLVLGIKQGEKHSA
Sequence of PIK3CA (human) (P42336 whole entry, looked up): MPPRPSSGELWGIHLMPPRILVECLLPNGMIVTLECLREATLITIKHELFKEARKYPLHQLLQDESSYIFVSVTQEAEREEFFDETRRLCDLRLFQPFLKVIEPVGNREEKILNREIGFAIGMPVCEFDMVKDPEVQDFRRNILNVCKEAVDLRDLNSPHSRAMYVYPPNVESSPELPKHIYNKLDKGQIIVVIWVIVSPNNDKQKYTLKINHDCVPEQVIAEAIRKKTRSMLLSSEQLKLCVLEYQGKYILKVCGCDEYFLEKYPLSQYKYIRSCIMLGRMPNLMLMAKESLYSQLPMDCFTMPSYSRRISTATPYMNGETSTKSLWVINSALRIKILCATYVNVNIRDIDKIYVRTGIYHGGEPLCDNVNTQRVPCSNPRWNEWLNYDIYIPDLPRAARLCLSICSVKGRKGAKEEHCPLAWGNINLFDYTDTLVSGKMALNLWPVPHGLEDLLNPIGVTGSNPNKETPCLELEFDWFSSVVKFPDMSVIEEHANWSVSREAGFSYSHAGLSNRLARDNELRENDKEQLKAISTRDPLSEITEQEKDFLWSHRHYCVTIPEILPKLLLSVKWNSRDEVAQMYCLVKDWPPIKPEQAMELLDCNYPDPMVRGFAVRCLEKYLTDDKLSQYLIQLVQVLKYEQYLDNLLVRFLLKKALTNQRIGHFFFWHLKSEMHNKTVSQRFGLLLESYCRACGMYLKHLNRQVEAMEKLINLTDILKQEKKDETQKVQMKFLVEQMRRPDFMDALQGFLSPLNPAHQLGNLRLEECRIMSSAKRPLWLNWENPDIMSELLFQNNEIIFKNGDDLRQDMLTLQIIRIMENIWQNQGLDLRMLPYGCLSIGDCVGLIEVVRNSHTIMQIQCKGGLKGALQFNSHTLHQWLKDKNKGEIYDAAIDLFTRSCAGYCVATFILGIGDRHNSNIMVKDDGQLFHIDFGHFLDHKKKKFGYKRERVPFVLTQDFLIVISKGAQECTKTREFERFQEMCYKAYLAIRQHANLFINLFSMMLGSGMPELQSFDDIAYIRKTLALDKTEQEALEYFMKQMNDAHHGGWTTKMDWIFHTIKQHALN
Sequence of PIK3CD (Human) (O00329 whole entry, looked up): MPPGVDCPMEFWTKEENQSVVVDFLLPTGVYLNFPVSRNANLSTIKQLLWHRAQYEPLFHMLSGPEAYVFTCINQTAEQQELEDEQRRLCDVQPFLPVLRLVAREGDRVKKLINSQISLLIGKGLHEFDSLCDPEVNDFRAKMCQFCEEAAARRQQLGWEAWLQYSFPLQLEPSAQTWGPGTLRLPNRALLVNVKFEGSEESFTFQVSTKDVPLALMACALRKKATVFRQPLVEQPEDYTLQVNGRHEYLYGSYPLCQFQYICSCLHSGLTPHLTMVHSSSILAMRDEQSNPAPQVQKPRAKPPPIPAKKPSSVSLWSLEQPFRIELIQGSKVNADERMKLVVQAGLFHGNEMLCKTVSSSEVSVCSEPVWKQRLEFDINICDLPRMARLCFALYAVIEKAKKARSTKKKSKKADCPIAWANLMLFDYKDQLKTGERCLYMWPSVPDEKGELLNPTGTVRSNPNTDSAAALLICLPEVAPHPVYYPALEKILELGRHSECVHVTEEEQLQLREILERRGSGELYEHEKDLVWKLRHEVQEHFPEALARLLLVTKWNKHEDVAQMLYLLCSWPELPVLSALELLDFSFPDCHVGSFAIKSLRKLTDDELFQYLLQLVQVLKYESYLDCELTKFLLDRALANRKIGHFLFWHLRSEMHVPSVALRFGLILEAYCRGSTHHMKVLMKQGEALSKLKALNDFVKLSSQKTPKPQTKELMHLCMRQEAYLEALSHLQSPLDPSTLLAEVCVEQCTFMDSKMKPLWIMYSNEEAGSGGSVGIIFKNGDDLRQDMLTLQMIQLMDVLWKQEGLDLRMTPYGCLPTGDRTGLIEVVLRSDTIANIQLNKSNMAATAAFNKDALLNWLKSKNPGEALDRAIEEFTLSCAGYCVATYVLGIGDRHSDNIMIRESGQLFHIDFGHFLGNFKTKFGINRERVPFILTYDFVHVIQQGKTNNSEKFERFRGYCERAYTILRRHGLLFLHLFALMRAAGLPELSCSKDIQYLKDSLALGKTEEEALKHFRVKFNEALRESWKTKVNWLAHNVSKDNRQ

COc1cc(-c2ccc3nc(NC(C)=O)sc3c2)ccc1O
< 1 µM: all assays above

CC(=O)Nc1nc2ccc(-c3cncc(S(=O)(=O)N(C)C)c3)cc2s1
< 1 µM: all assays above

Reference: the Kinase Knowledgebase extract (Sharma et al. 2016)
